Measurements from patent US20110287468A1, “METHODS AND COMPOSITIONS FOR ASSAYING ENZYMATIC ACTIVITY OF MYELOPEROXIDASE IN BLOOD SAMPLES” (General Atomics, priority 2010, published 2011).

How the values were obtained:
Format in all cases: biochemical
[1] = molecular target: T1, MPO (Homo sapiens, UniProt P05164); assay: Sensitivity of chromogenic substrates: MPO peroxidase activity in buffer solution; details: 0.24 mM H2O2, 94 ng/mL MPO, 100 mM phosphate buffer pH 6.0-7.0; for ΔOD/min: read at the substrate's wavelength; for Sensitivity: class of ΔOD/min
Excerpt: Substrate sensitivity was designated as “high” if ΔOD/min was above 0.2, “fair” if ΔOD/min was between 0.05 and 0.2, and “poor” if ΔOD/min was below 0.05.

[2] = molecular target: T1, MPO; assay: Interference by a specific MPO inhibitor (ABAH) added to the formed dye; details: 0.2 mM H2O2, 47 ng/mL MPO, 100 mM phosphate buffer pH 6.0-7.0; for Interference by Inhibitor: 0.1 mM ABAH added to the formed dye; for ΔOD/min (after inhibitor): after 0.1 mM ABAH; for ΔOD/min (before inhibitor): before ABAH
Protocol: Interference by a specific MPO inhibitor was evaluated by adding 0.1 mM of 4-aminobenzoic acid hydrazide (ABAH) to the formed dye (i.e. the colored product of the substrate oxidation) in the buffer solution. Before the addition of the inhibitor, the reaction mixture contained the chromogenic substrates, as well as 0.2 mM H2O2 (co-substrate) and 47 ng/mL MPO in 100 mM phosphate buffer (pH 6.0-7.0). Interference by the inhibitor was designated as “low” if the absorption changed by ≦0.01 ΔOD/min and “high” if the absorption changed by >0.01 ΔOD/min. The results are summarized in Tables 2 and 6, and the corresponding kinetic traces are shown on FIG. 1.

[3] = molecular target: T2, MPO (Homo sapiens, UniProt P05164); assay: MPO peroxidase assay in lithium heparin plasma (Hitachi 917): effects of common plasma substances on assay performance; details: nearly neutral pH
T2 construct: In a cuvette, 140 μL of Reagent 1 and 25 μL of plasma sample were mixed; from tissue; host or cells: human lithium heparin plasma
T2 sequence (P05164 49-745): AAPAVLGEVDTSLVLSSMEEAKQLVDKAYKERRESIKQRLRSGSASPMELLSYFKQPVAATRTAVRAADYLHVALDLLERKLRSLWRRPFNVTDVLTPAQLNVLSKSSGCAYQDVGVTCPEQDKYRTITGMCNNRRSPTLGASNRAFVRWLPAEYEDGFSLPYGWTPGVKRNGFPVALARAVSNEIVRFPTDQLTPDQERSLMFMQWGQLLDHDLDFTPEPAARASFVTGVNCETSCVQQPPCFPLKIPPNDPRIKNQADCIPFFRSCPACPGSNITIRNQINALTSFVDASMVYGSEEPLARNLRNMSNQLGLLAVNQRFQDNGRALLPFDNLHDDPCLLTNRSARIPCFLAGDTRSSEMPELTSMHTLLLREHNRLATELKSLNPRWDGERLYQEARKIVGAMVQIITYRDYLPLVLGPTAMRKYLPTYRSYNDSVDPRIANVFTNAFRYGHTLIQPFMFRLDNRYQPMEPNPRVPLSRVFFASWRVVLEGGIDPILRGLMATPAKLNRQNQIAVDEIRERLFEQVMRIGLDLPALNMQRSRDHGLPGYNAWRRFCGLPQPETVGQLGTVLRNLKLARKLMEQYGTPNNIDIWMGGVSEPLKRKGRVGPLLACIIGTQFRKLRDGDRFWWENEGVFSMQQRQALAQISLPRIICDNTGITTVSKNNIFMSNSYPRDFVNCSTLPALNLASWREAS
Protocol: To measure MPO peroxidase activity in blood samples, the following liquid stable, ready-to-use assay reagents were used:
The MPO peroxidase assay is formulated for use with non-hemolyzed lithium heparin plasma. No special handling or pretreatment is required. Plasma samples were collected such that testing could be performed as soon as possible after the specimen collection. Although the specimens may be refrigerated at 2-8° C. for 2-5 days, freezing plasma samples may lead to a decrease in MPO peroxidase activity.
In a cuvette, 140 μL of Reagent 1 and 25 μL of plasma sample were mixed and incubated at 37° C. for 1.5 minutes. Absorbance at 505 nm was read at about 2 minutes after the addition of 60 μL Reagent 2 as A1. The reaction was then incubated for approximately 3 more minutes, and the absorbance was read again as A2. The rate of the total peroxidation reaction was calculated as follows: Rate A=(A2−A1)/t, wherein t≈3 min
At about 5 minutes after the addition of Reagent 2, 46 μL of Reagent 3 was added to the reaction mix. Absorbance at 505 nm was read at about 2 minutes after the addition of Reagent 3 as A3. The reaction was then incubated for approximately 3 more minutes and the absorbance was read again as A4. The rate of the non-MPO peroxidation reaction was calculated as follows: Rate B=(A4−A3)/t, wherein t 3 min […]

Molecule | ΔOD/min [1] | Sensitivity [1] | other results
N-Ethyl-N-(2-hydroxy-3-sulfopropyl)-3,5-dimethoxyaniline, sodium salt/4AA [DAOS/4AA] | 0.025 ΔOD/min | Poor (“poor” if ΔOD/min was below 0.05) | 
N-Ethyl-N-(3-sulfopropyl)-3-methylaniline, sodium salt/4AA [TOPS/4AA] | 0.055 ΔOD/min |  | 
N-Ethyl-N-(2-hydroxy-3-sulfopropyl)-3,5-dimethylaniline, sodium salt, monohydrate/4AA [MAOS/4AA] | 0.045 ΔOD/min | Poor (“poor” if ΔOD/min was below 0.05) | 
N,N-Bis(4-sulfobutyl)-3-methylaniline, disodium salt (TODB)/3-Methyl-2-benzothiazolinone hydrazone (MBTH) [TODB/MBTH] |  | Fair (“fair” if ΔOD/min was between 0.05 and 0.2) | Interference by Inhibitor [2]: high numbers of false positives
4-Methylcatechol/4AA [4-MC/4AA] |  | Poor (“poor” if ΔOD/min was below 0.05) | Interference by Inhibitor [2]: high numbers of false positives
CN(C)c1ccc(N(C(=O)NCC(=O)[O-])c2ccc(N(C)C)cc2)cc1.[Na+] [DA64, N-(Carboxymethylaminocarbonyl)-4,4′-bis(dimethylamino)-diphenylamine sodium salt] | 0.0012 ΔOD/min | Poor (“poor” if ΔOD/min was below 0.05) | 
N-Ethyl-N-(2-hydroxy-3-sulfopropyl)-3-methylaniline, sodium salt, dehydrate/4-Aminoantipyrine (4AA) [TOOS/4AA] | 0.12 ΔOD/min |  | ΔOD/min (after inhibitor) [2]: 0.004 ΔOD/min; ΔOD/min (before inhibitor) [2]: 0.087 ΔOD/min
3,5-Dichloro-2-hydroxybenzenesulfonate, disodium salt/4AA or 3,5-Dichloro-2-hydroxybenzenesulfonic acid/4AA [DHBS/4AA] |  |  | ΔOD/min (after inhibitor) [2]: 0.002 ΔOD/min; ΔOD/min (before inhibitor) [2]: 0.089 ΔOD/min
Cc1cc(-c2ccc(NCC(O)CS(=O)(=O)[O-])c(C)c2)ccc1NCC(O)CS(=O)(=O)[O-].[Na+].[Na+] (centres unmarked) [SAT-3, N,N′-Bis(2-hydroxy-3-sulfopropyl)tolidine, disodium salt,] | 0 ΔOD/min | Poor (“poor” if ΔOD/min was below 0.05) | 
N,N-dimethylaniline (DMA)/3-Methyl-2-benzothiazolinone hydrazone (MBTH) [DMA/MBTH] |  | Poor (“poor” if ΔOD/min was below 0.05) | 
N,N-Bis(4-sulfobutyl)-3,5-dimethylaniline, disodium salt/4AA [MADB/4AA] | 0.04 ΔOD/min | Poor (“poor” if ΔOD/min was below 0.05) | 
N-(2-Hydroxy-3-sulfopropyl)-3,5-dimethoxyaniline, sodium salt/4AA [HDAOS/4AA] | 0.03 ΔOD/min | Poor (“poor” if ΔOD/min was below 0.05) | 
N,N-Bis(4-sulfobutyl)-3-methylaniline, disodium salt/4AA [TODB/4AA] | 0.07 ΔOD/min |  | ΔOD/min (after inhibitor) [2]: 0.001 ΔOD/min; ΔOD/min (before inhibitor) [2]: 0.077 ΔOD/min
N-Ethyl-N-(3-sulfopropyl)-3-methoxyaniline, sodium salt, monohydrate/4AA [ADPS/4AA] | 0.004 ΔOD/min | Poor (“poor” if ΔOD/min was below 0.05) | 
Cc1cc(-c2cc(C)c(N)c(C)c2)cc(C)c1N [TMB, 3,3′,5,5′-Tetramethylbenzidine] | 0.32 ΔOD/min | High (“high” if ΔOD/min was above 0.2) | 
N-Ethyl-N-(3-sulfopropyl)-aniline, sodium salt (ALPS)/3-Methyl-2-benzothiazolinone hydrazone (MBTH) [ALPS/MBTH] |  | Fair (“fair” if ΔOD/min was between 0.05 and 0.2) | Interference by Inhibitor [2]: high numbers of false positives
O=N[O-].[K+] [KNO2, Potassium nitrite] | No signal | Poor (“poor” if ΔOD/min was below 0.05) | 
COc1ccccc1O [Guaiacol, 1-Hydroxy-2-methoxybenzene; 2-Methoxyphenol] | 0.37 ΔOD/min | High (“high” if ΔOD/min was above 0.2) | 
Nc1ccc(-c2ccc(N)c(N)c2)cc1N [DAB, 3,3′-Diaminobenzidine] | 0.0093 ΔOD/min | Poor (“poor” if ΔOD/min was below 0.05) | 
CC(=O)N1c2ccc(O)cc2Oc2cc(O)ccc21 [Amplex, N-Acetyl-3,7-dihydroxyphenoxazine (Amplex ® UltraRed)] | 0.018 ΔOD/min | Poor (“poor” if ΔOD/min was below 0.05) | 
N-Ethyl-N-(2-hydroxy-3-sulfopropyl)-3-methoxylaniline, sodium salt, dehydrate/4AA [ADOS/4AA] | 0.04 ΔOD/min | Poor (“poor” if ΔOD/min was below 0.05) | 
CN(C)c1ccc2c(c1)Sc1cc(N(C)C)ccc1N2C(=O)NCC(=O)[O-].[Na+] [DA67, 10-(Carboxymethylaminocarbonyl)-3,7-bis(dimethylamino)-phenothiazine sodium salt] | 0.023 ΔOD/min | Poor (“poor” if ΔOD/min was below 0.05) | 
COc1cc(-c2ccc(N)c(OC)c2)ccc1N.Cl.Cl [o-dianisidine, o-Dianisidine dihydrochloride] |  |  | Sensitivity ([1]; dihydrochloride): precipitated out of solution; behaviour of the chromogenic substrate in blood samples [3]: precipitated from blood samples
N-Ethyl-N-(3-sulfopropyl)-aniline, sodium salt/4AA [ALPS/4AA] |  |  | ΔOD/min (after inhibitor) [2]: −0.003 ΔOD/min; ΔOD/min (before inhibitor) [2]: 0.086 ΔOD/min
CCCCCCCCCCCCCC[N+](C)(C)Cc1ccccc1.[Cl-] [TDBA, Tetradecyldimethylbenzylammonium chloride] | 0 ΔOD/min | Poor (“poor” if ΔOD/min was below 0.05) | 
